Data published in patent publication US12448388B2, “PRMT5 inhibitors and uses thereof” (Gilead Sciences, Inc., priority 2023, dated 2025).
Like-named read-outs stand apart in the source and are kept apart here.

System: HCT116 MTAP-deleted cell lines
Test: Cell viability assay (CellTiter-Glo, 7 days), HCT116 MTAP-deleted
Assay type: cell-based
Conditions: Homo sapiens, HCT-116, HCT116 MTAP-deleted, class symbols, read-out: CC50
Procedure, shortened: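 First, compounds are serially diluted in DMSO and dispensed into plates, which are frozen until seeding. Next, cells are added and incubated 7 days at 37 °C, 5% CO2, 90% humidity. Finally, CellTiter-Glo reagent is added and luminescence is measured to derive CC50.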

SMILES	CC50 (cell viability) [nM]	CC50 (cell viability assay) [nM]
CN(C(=O)c1cc2c(cc1F)nc(N)c1cncn12)[C@@H]1c2ccc(Br)cc2[C@@H]2C[C@H]12 [Ff-312, 4-amino-N-((1aR,6S,6aS)-3-bromo-1,1a,6,6a-tetrahydrocyclopropa[a]inden-6-yl)-7-fluoro-N-methylimidazo[1,5-a]quinoxaline-8-carboxamide]	100 to 1000	
Nc1nc2cc(F)c(C(=O)N3CCCCC3c3ccc(C(F)(F)F)cn3)cc2n2cncc12 (stereo not drawn) [Ff-133, (4-amino-7-fluoroimidazo[1,5-a]quinoxalin-8-yl)(2-(5-(trifluoromethyl)pyridin-2-yl)piperidin-1-yl)methanone]	< 100	
CN(Cc1ccc(C(F)(F)F)cc1F)C(=O)c1ccc2nc(N)c3cncn3c2c1 [Ff-411, 4-amino-N-[[2-fluoro-4-(trifluoromethyl)phenyl]methyl]-N-methyl-imidazo[1,5-a]quinoxaline-8-carboxamide]		100 to 1000
Cc1ncc2c(N)nc3cnc(C(=O)N4C[C@H](C)C[C@@H]5Oc6c(ccc(C(F)(F)F)c6F)[C@@H]54)cc3n12 [Ff-388, (4-amino-1-methylimidazo[1,5-a]pyrido[3,4-e]pyrazin-8-yl)((3R,4aS,9bS)-6-fluoro-3-methyl-7-(trifluoromethyl)-3,4,4a,9b-tetrahydrobenzofuro[3,2-b]pyridin-1(2H)-yl)methanone]		< 100
Cc1ncn2c1c(N)nc1cnc(C(=O)N3[C@@H]4c5ccc(C(F)(F)F)cc5O[C@@H]4CC[C@@H]3C)cc12 (single isomer, unassigned) [Ff-612]		100 to 1000
CN(C(=O)c1cc2c(cc1F)nc(N)c1cncn12)[C@H]1c2ccc(Br)cc2C[C@H]1OC(F)F [Ff-582, 4-amino-N-((1S,2R)-5-bromo-2-(difluoromethoxy)-2,3-dihydro-1H-inden-1-yl)-7-fluoro-N-methylimidazo[1,5-a]quinoxaline-8-carboxamide]		100 to 1000
Nc1nc2cc(F)c(C(=O)N3CCCC[C@H]3c3ccc(C(F)(F)F)cc3F)cc2n2cncc12 (single isomer, unassigned) [Ff-152]	100 to 1000	
C[C@@H]1CN(C(=O)c2cc3c(cc2F)nc(N)c2cncn23)[C@H]2c3cc(F)c(C(F)(F)F)cc3C[C@H]2O1 (single isomer, unassigned) [Ff-328]	< 100	
CN(C(=O)c1cc2c(cc1F)nc(N)c1cncn12)[C@@H]1COc2cc(-c3csc(C(F)F)n3)ccc21 [Ff-237, (S)-4-amino-N-(6-(2-(difluoromethyl)thiazol-4-yl)-2,3-dihydrobenzofuran-3-yl)-7-fluoro-N-methylimidazo[1,5-a]quinoxaline-8-carboxamide]	< 100	
Nc1nc2cc(F)c(C(=O)N3CCO[C@@H]4Cc5cc(C(F)(F)F)c(F)cc5[C@@H]43)cc2n2cncc12 [Ff-326, (4-amino-7-fluoroimidazo[1,5-a]quinoxalin-8-yl)((4aS,9aR)-6-fluoro-7-(trifluoromethyl)-2,3,9,9a-tetrahydroindeno[2,1-b][1,4]oxazin-4(4aH)-yl)methanone]	< 100	
CCN(C(=O)c1cc2c(cc1F)nc(N)c1cncn12)[C@H](C)c1ccc(C(F)(F)F)cn1 [Ff-542, (R)-4-amino-N-ethyl-7-fluoro-N-(1-(5-(trifluoromethyl)pyridin-2-yl)ethyl)imidazo[1,5-a]quinoxaline-8-carboxamide]		< 100
Nc1nc2ccc(C(=O)N3CCC[C@@H]4Oc5c(ccc(OC(F)(F)F)c5F)[C@@H]43)cc2n2cncc12 [Ff-381, (4-aminoimidazo[1,5-a]quinoxalin-8-yl)((4aS,9bS)-6-fluoro-7-(trifluoromethoxy)-3,4,4a,9b-tetrahydrobenzofuro[3,2-b]pyridin-1(2H)-yl)methanone]		< 100
C[C@H]1CN(C(=O)c2cc3c(cc2F)nc(N)c2cncn23)[C@@H](c2ccc(C(F)(F)F)cn2)CO1 [Ff-130, (4-amino-7-fluoroimidazo[1,5-a]quinoxalin-8-yl)((2S,5S)-2-methyl-5-(5-(trifluoromethyl)pyridin-2-yl)morpholino)methanone]	< 100	
Nc1nc2cc(F)c(C(=O)N3CCCCC4Oc5cc(C(F)(F)F)ccc5C43)cc2n2cncc12 (stereo not drawn) [Ff-432, (4-amino-7-fluoro-imidazo[1,5-a]quinoxalin-8-yl)-[8-(trifluoromethyl)-2,3,4,5,5a,10b-hexahydrobenzofuro[3,2-b]azepin-1-yl]methanone]		< 100
CN(C(=O)c1cc2c(cc1F)nc(N)c1cncn12)[C@@H]1COc2cc(-c3ccc(C(F)(F)F)cc3)ccc21 [Ff-230, (S)-4-amino-7-fluoro-N-methyl-N-(6-(4-(trifluoromethyl)phenyl)-2,3-dihydrobenzofuran-3-yl)imidazo[1,5-a]quinoxaline-8-carboxamide]	100 to 1000	
C[C@@H]1CN(C(=O)c2cc3c(cc2F)nc(N)c2cncn23)[C@H]2c3cc(F)c(C(F)F)cc3C[C@H]2O1 (single isomer, unassigned) [Ff-172]	< 100	
CN(C(=O)c1cc2c(cc1F)nc(N)c1cncn12)[C@@H]1COc2cc(-c3cnn4c3COCC4)ccc21 [Ff-150, (S)-4-amino-N-(6-(6,7-dihydro-4H-pyrazolo[5,1-c][1,4]oxazin-3-yl)-2,3-dihydrobenzofuran-3-yl)-7-fluoro-N-methylimidazo[1,5-a]quinoxaline-8-carboxamide]	< 100	
CC1(C)C[C@@H]2Oc3nc(C(F)(F)F)ccc3[C@@H]2N(C(=O)c2cc3c(cc2F)nc(N)c2cncn23)C1 (racemic) [Ff-384, Rac-(4-amino-7-fluoroimidazo[1,5-a]quinoxalin-8-yl)((4aS,9bS)-3,3-dimethyl-7-(trifluoromethyl)-3,4,4a,9b-tetrahydrofuro[2,3-b:4,5-b′]dipyridin-1(2H)-yl)methanone]		< 100
[2H]C([2H])([2H])N(C(=O)c1cc2c(cc1F)nc(N)c1cncn12)[C@@H](c1ccc(C(F)(F)F)cc1F)C(F)F [Fb-18, (S)-4-amino-N-(2,2-difluoro-1-(2-fluoro-4-(trifluoromethyl)phenyl)ethyl)-7-fluoro-N-(methyl-d3)imidazo[1,5-a]quinoxaline-8-carboxamide]	< 100	
Nc1nc2cc(F)c(C(=O)N3CCC[C@@H]4Oc5nc(C(F)(F)F)ccc5[C@@H]43)cc2n2cncc12 [Ff-361, (4-amino-7-fluoroimidazo[1,5-a]quinoxalin-8-yl)((4aS,9bS)-7-(trifluoromethyl)-3,4,4a,9b-tetrahydrofuro[2,3-b:4,5-b′]dipyridin-1(2H)-yl)methanone]	< 100	
CN(C(=O)c1cc2c(cc1F)nc(N)c1cncn12)[C@@H]1COc2cc(-c3ccc(C(F)(F)F)nc3)ccc21 [Ff-229, (S)-4-amino-7-fluoro-N-methyl-N-(6-(6-(trifluoromethyl)pyridin-3-yl)-2,3-dihydrobenzofuran-3-yl)imidazo[1,5-a]quinoxaline-8-carboxamide]	< 100	
Nc1nc2cc(Cl)c(C(=O)N3CC[C@H]4C[C@@H]3c3ccc(OC(F)F)cc34)cc2n2cncc12 [Ff-598, (4-amino-7-chloroimidazo[1,5-a]quinoxalin-8-yl)((1R,5S)-7-(difluoromethoxy)-1,3,4,5-tetrahydro-2H-1,5-methanobenzo[c]azepin-2-yl)methanone]		< 100
C=C(C)c1ccc2c(c1)OC[C@H]2N(C)C(=O)c1cc2c(cc1F)nc(N)c1cncn12 [Ff-478, (S)-4-amino-7-fluoro-N-methyl-N-(6-(prop-1-en-2-yl)-2,3-dihydrobenzofuran-3-yl)imidazo[1,5-a]quinoxaline-8-carboxamide]		< 100
CN(Cc1nc(-c2cnn(C(F)F)c2)cs1)C(=O)c1cc2c(cc1F)nc(N)c1cncn12 [Ff-48, 4-amino-N-((4-(1-(difluoromethyl)-1H-pyrazol-4-yl)thiazol-2-yl)methyl)-7-fluoro-N-methylimidazo[1,5-a]quinoxaline-8-carboxamide]	100 to 1000	
Cc1ncn2c1c(N)nc1cc(F)c(C(=O)N3CCC[C@@H]4OCc5nc(C(F)(F)F)ccc5[C@@H]43)cc12 [Ff-358, (4-amino-7-fluoro-3-methylimidazo[1,5-a]quinoxalin-8-yl)((4aS,10bS)-8-(trifluoromethyl)-2,3,4,4a,6,10b-hexahydro-1H-pyrano[3,2-b:5,4-b′]dipyridin-1-yl)methanone]	< 100	
Cc1ncc2c(N)nc3ccc(C(=O)N4CCC5(CC4)C(=O)N(C)c4ccccc45)cc3n12 [Ff-64, 1′-(4-amino-1-methylimidazo[1,5-a]quinoxaline-8-carbonyl)-1-methylspiro[indoline-3,4′-piperidin]-2-one]	100 to 1000	
Nc1nc2cnc(C(=O)N3CCO[C@@H]4Cc5c(cc(F)c(Br)c5F)[C@@H]43)cc2n2cncc12 [Ff-162, (4-aminoimidazo[1,5-a]pyrido[3,4-e]pyrazin-8-yl)((4aS,9aR)-7-bromo-6,8-difluoro-2,3,9,9a-tetrahydroindeno[2,1-b][1,4]oxazin-4(4aH)-yl)methanone]	100 to 1000	
Cc1ncn2c1c(N)nc1cnc(C(=O)N3C[C@H](C)C[C@@H]4Oc5c(ccc(C(F)(F)F)c5F)[C@@H]43)cc12 [Fg-63, (4-amino-3-methylimidazo[1,5-a]pyrido[3,4-e]pyrazin-8-yl)((3R,4aS,9bS)-6-fluoro-3-methyl-7-(trifluoromethyl)-3,4,4a,9b-tetrahydrobenzofuro[3,2-b]pyridin-1(2H)-yl)methanone]		< 100
CN(C(=O)c1ccc2nc(N)c3cncn3c2c1)[C@@H](c1ccc(C(F)(F)F)cc1F)C(F)F [Fb-14, (S)-4-amino-N-(2,2-difluoro-1-(2-fluoro-4-(trifluoromethyl)phenyl)ethyl)-N-methylimidazo[1,5-a]quinoxaline-8-carboxamide]	< 100	
Nc1nc2cnc(C(=O)N3CCO[C@@H]4Cc5cc(OC(F)(F)F)c(F)cc5[C@@H]43)cc2n2cncc12 [Ff-178, (4-aminoimidazo[1,5-a]pyrido[3,4-e]pyrazin-8-yl)((4aS,9aR)-6-fluoro-7-(trifluoromethoxy)-2,3,9,9a-tetrahydroindeno[2,1-b][1,4]oxazin-4(4aH)-yl)methanone]	< 100	
